Test results from US10954197B2, “Cathepsin-D and angiogenesis inhibitors and compositions thereof for treating breast cancer” (YOGEE'S BIOINNOVATIONS PRIVATE LIMITED, priority 2017, dated 2021).

For `COc1ccc(Cl)cc1NC(=O)CSc1n[nH]c(CNc2cccc(C)c2)n1` [Example 1, N-(5-chloro-2-methoxyphenyl)-2-((5-((m-tolylamino)methyl)-1H-1,2,4-triazol-3-yl)thio)acetamide], the melting point was 40 to 42 °C. Compound `Cc1cccc(NCc2nc(SCC(=O)Nc3ccccc3)n[nH]2)c1` [Example 2, N-Phenyl-2-((5-((m-tolylamino)methyl)-1H-1,2,4-triazol-3-yl)thio)acetamide] has a melting point of 40 to 42 °C. `Cc1cccc(NCc2nc(SCC(=O)Nc3cccc(F)c3)n[nH]2)c1` [Example 3, N-(3-fluorophenyl)-2-((5-((m-tolylamino)methyl)-1H-1,2,4-triazol-3-yl)thio)acetamide] gave a melting point of 40 to 42 °C. Work on `COc1ccc(NC(=O)CSc2n[nH]c(CNc3cccc(C)c3)n2)cc1` [Example 5, N-(4-methoxyphenyl)-2-((5-((m-tolylamino)methyl)-1H-1,2,4-triazol-3-yl)thio)acetamide] yielded a melting point of 40 to 42 °C. With `Cc1cccc(NCc2nc(SCC(=O)Nc3ccc(Cl)c(Cl)c3)n[nH]2)c1` [Example 6, N-(3,4-dichlorophenyl)-2-((5-((m-tolylamino)methyl)-1H-1,2,4-triazol-3-yl)thio)acetamide] the melting point was 40 to 42 °C. Work on `COc1cc(NC(=O)CSc2n[nH]c(CNc3cccc(C)c3)n2)cc(OC)c1` [Example 7, N-(3,5-dimethoxyphenyl)-2-((5-((m-tolylamino)methyl)-1H-1,2,4-triazol-3-yl)thio)acetamide] yielded a melting point of 40 to 42 °C. Compound `Cc1cccc(NCc2nc(SCC(=O)Nc3cc(C(F)(F)F)ccc3Cl)n[nH]2)c1` [Example 8, N-(2-chloro-5-(trifluoromethyl)phenyl)-2-((5-((m-tolylamino)methyl)-1H-1,2,4-triazol-3-yl)thio)acetamide] has a melting point of 40 to 42 °C. Work on `O=C(CSc1n[nH]c(CNc2ccccc2)n1)Nc1ccccc1` [Example 9, N-phenyl-2-((5-((phenylamino)methyl)-1H-1,2,4-triazol-3-yl)thio)acetamide] yielded a melting point of 40 to 42 °C. `O=C(CSc1n[nH]c(CNc2ccccc2)n1)Nc1cccc(F)c1` [Example 10, N-(3-fluorophenyl)-2-((5-((phenylamino)methyl)-1H-1,2,4-triazol-3-yl)thio)acetamide] showed a melting point of 40 to 42 °C. For `O=C(CSc1n[nH]c(CNc2ccccc2)n1)Nc1cccc(Br)c1` [Example 11, N-(3-bromophenyl)-2-((5-((phenylamino)methyl)-1H-1,2,4-triazol-3-yl)thio)acetamide], the melting point was 40 to 42 °C. Work on `COc1ccc(NC(=O)CSc2n[nH]c(CNc3ccccc3)n2)cc1` [Example 12, N-(4-methoxyphenyl)-2-((5-((phenylamino)methyl)-1H-1,2,4-triazol-3-yl)thio)acetamide] yielded a melting point of 40 to 42 °C. In the case of `O=C(CSc1n[nH]c(CNc2ccccc2)n1)Nc1ccc(Cl)c(Cl)c1` [Example 13, N-(3,4-dichlorophenyl)-2-((5-((phenylamino)methyl)-1H-1,2,4-triazol-3-yl)thio)acetamide], the melting point is reported as 40 to 42 °C. With `COc1cc(NC(=O)CSc2n[nH]c(CNc3ccccc3)n2)cc(OC)c1` [Example 14, N-(3,5-dimethoxyphenyl)-2-((5-((phenylamino)methyl)-1H-1,2,4-triazol-3-yl)thio)acetamide] the melting point was 40 to 42 °C. Work on `CC(=O)c1cccc(NC(=O)CSc2n[nH]c(NC(=S)NCc3ccccc3)n2)c1` [Example 18, N-(3-acetylphenyl)-2-((5-(3-benzylthioureido)-1H-1,2,4-triazol-3-yl)thio)acetamide] yielded a melting point of 40 to 42 °C. `O=C(CSc1n[nH]c(NC(=O)NCc2ccccc2)n1)Nc1ccc([N+](=O)[O-])cc1` [Example 19, 2-((5-(3-benzylureido)-1H-1,2,4-triazol-3-yl)thio)-N-(4-nitrophenyl)acetamide] showed a melting point of 40 to 42 °C. `CC(=O)c1cccc(NC(=O)CSc2n[nH]c(NC(=O)NCc3ccccc3)n2)c1` [Example 20, N-(3-acetylphenyl)-2-((5-(3-benzylureido)-1H-1,2,4-triazol-3-yl)thio)acetamide] gave a melting point of 40 to 42 °C. Work on `Cc1cc([N+](=O)[O-])ccc1NC(=O)CSc1n[nH]c(NC(=O)NCc2ccccc2)n1` [Example 21, 2-((5-(3-benzylureido)-1H-1,2,4-triazol-3-yl)thio)-N-(2-methyl-4-nitrophenyl)acetamide] yielded a melting point of 40 to 42 °C.
